Legend:
[1] = system: rat brain receptor (opiate); assay: Rat brain binding assay with tritiated βh-EP as primary ligand (Example 4); conditions: for IC50: 50% inhibiting concentration; for Relative Potency: receptor binding, βh-Endorphin = 100
Procedure: Opiate activity was measured in the rat brain binding assay in which tritiated βh -EP is used as primary ligand (Ferrara et al., Biochem. Biophys. Res. Comm. 89, 786 [1979]).

[2] = molecular target: opiate receptor; assay: Opiate receptor binding assay, rat brain membrane fraction (Example 2); conditions: for IC50: 50% inhibiting concentration, [3H-Tyr27]-βh-EP as primary ligand; for Relative Potency: receptor binding, βh-Endorphin = 100
Procedure: The opiate receptor binding assay was performed by the method of Pasternak et al., Mol. Pharmacol. 11, 340 (1975) with modifications using a membrane fraction from rat brain homogenate. [^3 H-Tyr^27 ]-βh -EP was used as primary ligand and synthetic βh -EP as standard competing ligand.

[3] = system: guinea pig ileum preparations; assay: Opiate activity: depression of electrically-stimulated contractions of guinea pig ileum preparations; assay type: cell-based; conditions: for IC50: guinea pig ileum assay; for Relative Potency: guinea pig ileum, βh-Endorphin = 100
Procedure: (§1) Opiate activity was measured from the depression of electrically-stimulatedcontractions of guinea pig ileum preparations, see Kosterlitz et al., J. Pharmacol. 39, 398 (1970) and Doneen et al., Biochem. Biophys. Res. Commun. 74, 656 (1977). For analgesic assay, male ICR mice weighing 25-30 g (Simonsen Laboratories, Gilroy, CA) were used. Analgesic activity was assessed by the tail-flick method of D'Amour and Smith as described by Li et al., Biochem. Biophys. Res. Commun. 85, 795 (1978).

[4] = Analgesic assay, tail-flick method, intracerebroventricular injection; assay type: in vivo, male ICR mice; conditions: for Relative Potency: analgesic potency, βh-Endorphin = 100 (run in the same group); for AD50: intracerebroventricular injection, mice, tail-flick, 95% confidence limit in parentheses
Procedure: as §1
^a AD50 in nmole (95% confidence limit) by
intracerebroventricular injection.

[5] = cited from earlier work
[6] = system: guinea pig ileum preparations; conditions: βh-EP = 100; cited from earlier work
[7] = βh-EP = 100; cited from earlier work
[8] = tritiated βh-EP as primary ligand

With `CSCC[C@H](NC(=O)[C@H](Cc1ccccc1)NC(=O)CNC(=O)CNC(=O)[C@@H](N)Cc1ccc(O)cc1)C(=O)O` [methionine-enkephalin, reference compound] the “activity in rat brain binding assay (in words)” value [1] was “low activity” and the “activity in rat brain binding assay, relative to βh-EP” value [1, 8] was 5 % of βh -EP.

With “[CH3 (CH2)4 NH2^31 ]-βh -EP [[CH(CH2)4 NH2^31]-βh -EP]” the IC50 [1, 8] was 330 pM and the “Relative Potency” value [1] was 197.

In the case of “[Gln^8, Gly^31 ]-βh -EP-Gly-Gly-NH2 [[Gln^8,Gly^31]-βh -Gly--Gly--NH2]”, the “potency in the binding assay relative to βh-EP (in words)” value [1] is reported as “nine times that of βh -EP”, the IC50 [1, 8] is reported as 70 pM and the “Relative Potency” value [1] is reported as 929.

[Gly^31 ]-βh -EP showed an IC50 [2] of 590 pM, a Relative Potency [2] of 127 and an IC50 [3] of 76000 pM. For the same molecule, the Relative Potency [3] was 168, the “Relative Potency” value [4] was 83 and the AD50 [4] was 0.077 (0.038-0.17) nmole.

For “[Gly^31 ]-βh -EP-Gly-Gly-NH2 [[Gly^31]-βh -EP--Gly--Gly--NH2]”, the “potency in the binding assay relative to βh-EP (in words)” value [1] was “over four times the potency of βh -EP”, the IC50 [1, 8] was 150 pM and the “Relative Potency” value [1] was 433.

With “[Gly^31 ]-βh -EP-Gly-NH2 [[Gly^31]-βh -EP--Gly--NH2]” the “activity in rat brain binding assay (in words)” value [1] was “a further increase in activity”, the IC50 [1, 8] was 190 pM and the “Relative Potency” value [1] was 342.

For “[Gly^31 ]-βh -endorphinamide [[Gly^31]-βh -EP--NH2]”, the IC50 [2] was 300 pM, the “potency in the receptor assay relative to the parent peptide (in words)” value ([2]; Table 4) was “almost three times more potent” and the Relative Potency [2] was 250. For the same molecule, the IC50 [3] was 64000 pM, the Relative Potency [3] was 200 and the “Relative Potency” value [4] was 225. The AD50 [4] was 0.016 (0.008-0.032) nmole.

Work on “[Gly^31 ]-βh -endorphinylglycine [[Gly^31]-βh -EP--Gly--OH]” yielded an IC50 [2] of 490 pM, a Relative Potency [2] of 153 and an IC50 [3] of 97000 pM. For the same molecule, the Relative Potency [3] was 132, the “Relative Potency” value [4] was 217 and the AD50 [4] was 0.043 (0.031-0.057) nmole.

In the case of [Phe^27, Gly^31 ]-βh -EP, the “analgesic potency relative to the parent” value ([5]; intravenous assay route) is given as “about 1.48 times that of the parent”, the “relative potency previously obtained, guinea pig ileum assay” value [6] is given as 128 and the “relative potency previously obtained, in vivo assay” value [7] is given as 119.

For “β-endorphin: the structure corresponding to positions 61-91 of β-lipotropin, namely β-endorphin (YGGFMTSEKSQTPLVTLFKNAIIKNAYKKGE; Beta-endorphin; UniProt P01189 237-267, looked up)”, the “analgesic activity (in words)” value ([5]; intravenous route) is given as “potent analgesic activity by the intravenous route”.

With “βh -Endorphin: synthetic βh -EP as standard competing ligand [reference compound]” the IC50 [2] was 750 pM, the Relative Potency [2] was 100 and the IC50 [3] was 128000 pM. For the same molecule, the Relative Potency [3] was 100, the IC50 [1, 8] was 650 pM and the “Relative Potency” value [1] was 100. The “Relative Potency” value [4] was 100.

From patent US4250087A, “Carboxyl terminus analogs of β-endorphin” (Hoffmann-La Roche Inc., priority 1979, dated 1981)
